# Measurements from patent US20210115087A1, “CYCLIC PEPTIDE INHIBITORS OF HEDGEHOG PROTEINS” (University of Rochester, priority 2016, published 2021).
# Entries after “also recorded” stand apart in the source; their conditions may differ. *1 amine or outer side, *2 acyl side, *3 side chain or, on linkers, in order; H or OH if unused. Where a SMILES comes first, the peptide text is derived from it. Bridges are numbered along the chain shown (N, C = ends). CH2CH2 = C(C[*:2])[*:1]
# What was measured:
# GST-Shh [1] = target: T1, GST-Shh (Homo sapiens, UniProt Q15465); test: KD (nM)
# T1 construct: poly-histidine (N); made in house; host or cells: E. coli BL21(DE3), vector pET42b
# Excerpt: Table printed on a drawing sheet, FIG. 9
# Head of the field: KD (nM)
# The patent's description of the figure: FIG. 9. Shh binding affinity of X5-X8-linked cyclic peptides.
# First copying reader's note: The error (±) is printed in the same cell as the KD value.
# Where the first naming reader finds the target: description_of_the_figure: direct binding of the selected FLAG tag-fused peptides to plate-immobilized GST-Shh
# Target sequence in this assay (Q15465 24-197 limits assumed): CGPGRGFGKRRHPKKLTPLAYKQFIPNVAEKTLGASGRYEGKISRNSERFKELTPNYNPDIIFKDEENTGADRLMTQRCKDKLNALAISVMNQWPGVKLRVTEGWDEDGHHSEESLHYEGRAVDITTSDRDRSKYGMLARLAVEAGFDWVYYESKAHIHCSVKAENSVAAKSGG
# GST-Shh [2] = target: T1, GST-Shh; test: Hh protein binding immunoassay: FLAG-tagged peptide on plate-immobilized GST-Shh, HRP-conjugated anti-FLAG antibody
# Excerpt: As for any peptide/protein interaction, various analytical and biophysical methods can be applied to test and assess the ability of the compounds provided herein to bind to Hedgehog proteins. These methods include, but are not limited to immunoassays (e.g., ELISA), radio(immune)assays, fluorescence-based assays, colorimetric assays, and/or techniques such as surface plasmon resonance (SPR), FRET, fluorescence polarization, isothermal calorimetry, NMR, and the like. A method that can be used is a solid phase immunoassay, in which the Hedgehog protein is immobilized on a plate or test tube and then incubated with the peptide at a fixed or variable concentration. In this assay, the peptide is functionalized with a label in the form of an antibody epitope (e.g., ‘FLAG tag’ peptide sequence) or an affinity tag molecule (e.g., biotin). After washing the unbound peptide, the Hedgehog-bound peptide is detected and quantified by means of a colorimetric assay using an enzyme-conjugated antibody (e.g., horseradish peroxidase-conjugated anti-FLAG antibody) or enzyme-conjugated capture protein (e.g., horseradish peroxidase-conjugated streptavidin). […]
# To measure the binding affinity of the peptides for Shh, an in vitro assay was established in which recombinant GST-fused Shh is immobilized on microtiter plates and then exposed to the FLAG-tagged peptide at varying concentrations. The Shh-bound peptide is then quantified colorimetrically (λ450) using a horseradish peroxidase (HRP)-conjugated anti-FLAG antibody. […]
# Hh protein binding assay. Shh binding activity/affinity of the linear and cyclic peptides was measured using the immunoassay outlined in FIG. 4. […] After washing, 100 μL of 2.2 mM o-phenylenediamine dihydrochloride, 4.2 mM urea hydrogen peroxide, 100 mM dibasic sodium phosphate and 50 mM sodium citrate, pH 5.0 was added to each well, followed by measurement of the absorbance at 450 nm using a Tecan Infinite 1000 plate reader. […]
# Target sequence in this assay (Q15465 24-462): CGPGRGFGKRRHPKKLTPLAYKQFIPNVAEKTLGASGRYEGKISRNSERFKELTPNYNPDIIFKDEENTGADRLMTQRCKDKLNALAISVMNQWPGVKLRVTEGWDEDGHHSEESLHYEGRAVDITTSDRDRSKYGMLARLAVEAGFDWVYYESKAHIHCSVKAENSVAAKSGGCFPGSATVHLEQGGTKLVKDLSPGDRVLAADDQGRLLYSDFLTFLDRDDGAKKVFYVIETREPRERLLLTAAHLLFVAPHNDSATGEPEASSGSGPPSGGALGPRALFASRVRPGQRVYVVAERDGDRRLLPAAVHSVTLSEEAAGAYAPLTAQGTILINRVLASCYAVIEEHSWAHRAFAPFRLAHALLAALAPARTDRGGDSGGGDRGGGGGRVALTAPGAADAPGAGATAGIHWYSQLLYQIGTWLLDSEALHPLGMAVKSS
# [3] = tested on: Shh-mediated Hedgehog pathway signaling in NIH3T3 cells; test: Gli-reporter dual luciferase assay in Shh-N-stimulated NIH-3T3 cells; type: cell-based, mouse
# Excerpt: The ability of the compounds provided herein to inhibit ligand-induced activation of the Hedgehog pathway in a cell can be assessed by means of a cell based assay. In an exemplary procedure, a suitable reporter plasmid is introduced in a Hedgehog responsive mammalian cell. Typically, the reporter plasmid contains a reporter gene encoding (e.g., a gene encoding for firefly luciferase) under a Gli-controlled promoter, thereby providing a reporter gene that is responsive to the activity of the Gli transcription factors. […] The reporter cells are incubated with the Hedgehog protein in the presence and in the absence of the cyclic peptide. The extent of Hedgehog pathway suppression can be determined based on relative activity of the luciferase reporter enzyme, which in turn can be determined by measuring the luminescence signal after addition of a luminogenic substrate of the luciferase enzyme.
# To this end, we utilized a cell-based luciferase reporter assay, (Chen, Taipale et al. 2002) in which mouse embryo fibroblasts (NIH3T3) are transfected with vectors encoding for a Firefly luciferase (FF) gene under a Gli-controlled promoter and a Renilla luciferase (Ren) gene under a constitutive promoter. Hedgehog pathway suppression is measured based on the decrease in Firefly/Renilla luminescence ratio in the presence of the inhibitor. […] (Chen, Taipale et al. 2002)
# Gli-reporter Assay. NIH-3T3 cells were passaged twice and then plated in 24-well culture dishes at 5×10^5 cells/well in DMEM containing 10% FBS and 1% penicillin/streptomycin. After 24 hours, the cells were transfected (TransIT-2020) with a mixture of a firefly luciferase reporter construct under the control of a Gli1 inducible promoter and a Renilla luciferase reporter construct under a constitutive promoter (40:1) (Cignal GLI Reporter Luciferase Kit, Qiagen). Cells were allowed to reach confluency, at which point the media was changed to Opti-MEM containing 1% FBS and added with 4 nM Shh-N(R&D Systems, Minneapolis, Minn.) in sterile PBS buffer. Synthetic HL2-lin and HL2-m5 were added at the same time at varying concentration (0.01-30 uM), and control cells were prepared by adding vehicle only (1% DMSO). Purmorphamine-treated cells were prepared by adding 5 μM purmorphamine to wells containing 10 μM HL2-m5. After growth for 24 hours at 37° C. in a humidified chamber, the cells were harvested and analyzed for Firefly and Renilla luciferase activity using a Tecan Spark-20 plate reader and a DLR kit (Promega) according to the manufacturer's instructions. Luminescence values were normalized to those of the Shh pathway activated control cells. Mean values and standard deviations were calculated from experiments performed at least in duplicate.
# [4] = tested on: GST-Shh, GST-Ihh, and GST-Dhh; test: Hedgehog analog selectivity: relative binding at fixed peptide concentration; parameters: species or system human; details: peptide at fixed concentration of 0.5-1 μM, normalized to highest response
# Protocol: FIG. 14. Hh analog selectivity for linear HHIP L2-derived peptide (HL2-pep) and representative cyclic peptide inhibitors. The data relative to the peptides were derived from direct binding experiments with immobilized Hedgehog proteins (i.e., GST-Shh, GST-Ihh, and GST-Dhh), biotinylated peptides (i.e., Biot-HL2-pep, Biot-HL2-m1, Biot-HL2-m2, Biot-HL2-m3, Biot-HL2-m4, Biot-HL2-m4), and HRP-conjugated streptavidin. The data relative to robotnikinin were derived from competition experiments ([…]+400 nM HL2-m5). For each compound, the response values were normalized to the highest binding response measured across the three Hedgehog analogs.
# Hedgehog analog selectivity. KD values for FLAG-HL2-m5 binding to Ihh and Dhh were determined using the colorimetric immunoassay described earlier but using GST-Ihh and GST-Dhh-coated plates, respectively. The peptide relative binding affinity for the three isoforms of Hedgehog was determined using the same assay and peptide solutions at a fixed concentration of 0.5-1 μM. In this case, binding responses were subtracted against the blank (no peptide sample) and normalized to the highest value measured across the three Hh isoforms. Mean values and standard deviations were calculated from experiments performed at least in triplicate.
molecule,measurement,setting,value
CSCC[C@H](N)C(=O)N[C@@H](CC(=O)O)C(=O)N[C@@H](Cc1ccc(O)cc1)C(=O)N[C@@H](CCCCN)C(=O)N[C@@H](CC(=O)O)C(=O)N[C@@H](CC(=O)O)C(=O)N[C@@H](CC(=O)O)C(=O)N[C@@H](CC(=O)O)C(=O)N[C@@H](CCCCN)C(=O)NCC(=O)N[C@@H](CO)C(=O)NCC(=O)N[C@@H](CO)C(=O)N[C@H](C(=O)N[C@H](C(=O)N[C@@H](CO)C(=O)N[C@@H](CC(=O)O)C(=O)NCC(=O)N[C@@H](CCC(=O)O)C(=O)N[C@@H](CCC(=O)O)C(=O)N[C@H]1Cc2ccc(cc2)OCCSC[C@@H](C(=O)N[C@@H](CC(C)C)C(=O)N[C@@H](CC(=O)O)C(=O)O)NC(=O)CNC(=O)[C@H](CC(=O)O)NC1=O)C(C)C)[C@@H](C)O [FLAG-HL2-2m1.1] (H-MDYKDDDDKGSGSTVSDGEEYDGCLD-OH; linker 21-24 via CH2CH2; N-terminus assumed),Kd,GST-Shh [1],560 ± 5 nM
CSCC[C@H](N)C(=O)N[C@@H](CC(=O)O)C(=O)N[C@@H](Cc1ccc(O)cc1)C(=O)N[C@@H](CCCCN)C(=O)N[C@@H](CC(=O)O)C(=O)N[C@@H](CC(=O)O)C(=O)N[C@@H](CC(=O)O)C(=O)N[C@@H](CC(=O)O)C(=O)N[C@@H](CCCCN)C(=O)NCC(=O)N[C@@H](CO)C(=O)NCC(=O)N[C@@H](CO)C(=O)N[C@H](C(=O)N[C@@H](CCCNC(=N)N)C(=O)NCC(=O)N[C@@H](CC(=O)O)C(=O)NCC(=O)N[C@@H](CCC(=O)O)C(=O)N[C@@H](CCC(=O)O)C(=O)N[C@H]1Cc2ccc(cc2)OCCSC[C@@H](C(=O)N[C@H](C(=O)N[C@@H](CC(=O)O)C(=O)O)C(C)C)NC(=O)CNC(=O)[C@H](CC(=O)O)NC1=O)[C@@H](C)O [FLAG-HL2-2m1.2] (H-MDYKDDDDKGSGSTRGDGEEYDGCVD-OH; linker 21-24 via CH2CH2; N-terminus assumed),Kd,GST-Shh [1],850 ± 20 nM
CSCC[C@@H]1NC(=O)[C@H](CCC(=O)O)NC(=O)[C@H](CCC(=O)O)NC(=O)[C@@H](NC(=O)[C@H](CC(=O)O)NC(=O)[C@H](CC(=O)O)NC(=O)[C@H](CC(C)C)NC(=O)[C@@H](NC(=O)[C@H](CO)NC(=O)CNC(=O)[C@H](CO)NC(=O)CNC(=O)[C@H](CCCCN)NC(=O)[C@H](CC(=O)O)NC(=O)[C@H](CC(=O)O)NC(=O)[C@H](CC(=O)O)NC(=O)[C@H](CC(=O)O)NC(=O)[C@H](CCCCN)NC(=O)[C@H](Cc2ccc(O)cc2)NC(=O)[C@H](CC(=O)O)NC(=O)[C@@H](N)CCSC)[C@@H](C)O)Cc2ccc(cc2)OCCSC[C@@H](C(=O)N[C@@H](CO)C(=O)N[C@@H](CC(=O)O)C(=O)O)NC(=O)CNC(=O)[C@H](CC(=O)O)NC1=O [FLAG-HL2-m1] (H-MDYKDDDDKGSGSTLDDYEEMDGCSD-OH; linker 18-24 via CH2CH2; N-terminus assumed),increase in Shh binding affinity compared to FLAG-HL2-m1,GST-Shh [2]; ratio of KD values,11 fold
CSCC[C@@H]1NC(=O)[C@H](C)NC(=O)[C@H](CCC(=O)O)NC(=O)[C@@H](NC(=O)[C@H](Cc2c[nH]c3ccccc23)NC(=O)[C@H](CO)NC(=O)[C@H](CC(C)C)NC(=O)[C@@H](NC(=O)[C@H](CO)NC(=O)CNC(=O)[C@H](CO)NC(=O)CNC(=O)[C@H](CCCCN)NC(=O)[C@H](CC(=O)O)NC(=O)[C@H](CC(=O)O)NC(=O)[C@H](CC(=O)O)NC(=O)[C@H](CC(=O)O)NC(=O)[C@H](CCCCN)NC(=O)[C@H](Cc2ccc(O)cc2)NC(=O)[C@H](CC(=O)O)NC(=O)[C@@H](N)CCSC)[C@@H](C)O)Cc2ccc(cc2)OCCSC[C@@H](C(=O)N[C@H](C(=O)N[C@@H](CC(=O)O)C(=O)O)[C@@H](C)O)NC(=O)[C@H](CCSC)NC(=O)[C@H](CC(=O)O)NC1=O [FLAG-HL2-m5] (H-MDYKDDDDKGSGSTLSWYEAMDMCTD-OH; linker 18-24 via CH2CH2),Kd,GST-Shh [2],170 nM
same,higher binding affinity for Shh compared to the linear L2-derived peptide (FLAG-HL2-pep),GST-Shh [2]; ratio of KD values,~120 fold
CC1=C2C[C@H]3[C@@H](CC=C4C[C@@H](O)CC[C@@]43C)[C@@H]2CC[C@]12O[C@@H]1C[C@H](C)CN[C@H]1[C@H]2C [cyclopamine],inhibition of Shh-induced luminescence,[3]; concentration of 10 μM,full inhibition
c1ccc2c(Oc3nc(Nc4ccc(N5CCOCC5)cc4)c4ncn(C5CCCCC5)c4n3)cccc2c1 [purmorphamine],effect of Smo agonist on pathway signaling in HL-m5-treated cells,[3]; 5 μM purmorphamine added to 10 μM HL2-m5,restored activation of the signaling pathway
HL2-pep: linear peptide derived from the HHIP L2 loop (TLDDMEEMDGLSD),Hedgehog analog selectivity profile,[4],Dhh>Shh≈Ihh
same,inhibitory activity on Hedgehog pathway signaling (in words),"[3]; concentrations up to 30 μM, Shh-N-stimulated cells",no inhibitory activity; also recorded: unable to suppress signaling
